Test results reported in US6727274B2, “Arylsulphonyl substituted-tetrahydro- and hexahydro-carbazoles” (Pharmacia & Upjohn Company, priority 2001, dated 2004).

SMILES: CN[C@@H]1CCc2c(c3cc(S(=O)(=O)c4ccccc4)ccc3n2C)C1.Cl
- melting point: > 275 °C
